In one series the target is human thrombin (Homo sapiens, UniProt P00734). Kind of series: Inhibition of amidolytic activity of thrombin (chromogenic substrate S-2238). The class given is biochemical. Conditions: human thrombin 0.5 nM final conc., S-2238, pH 7.8, room temperature. As to the method: (§1) A differential inhibition of thrombin and other serine proteases by the above compounds is desirable in order to obtain compounds having as high a specificity as possible and at the same time to avoid possible side-effects.
(§2) Specific chromogenic peptide substrates can be used to determine the inhibition of the catalytic activity of the above proteases. The inhibition of the amidolytic activity of thrombin and trypsin by the above guanidines was determined as described hereinafter.
(§3) The measurements were carried out on microtiter plates at room temperature. For this, in each well of the plate 150 μl of buffer (50 mM Tris, 100 mM NaCl, 0.1% polyethylene glycol; pH 7.8) were mixed with 50 μl of the inhibitor dissolved in DMSO and diluted in the buffer, and 25 μl of human thrombin (0.5 nM final conc.) were added. After incubation for 10 minutes, the reaction was started by the addition of chromogenic substrate S-2238 (H-D-Phe-Pip-Arg-paranitroaniline from Kabivitrum; 10 or 50 μm final conc.) and the hydrolysis of the substrate was followed spectrophotometrically on a kinetic microliter plate reader for 5 minutes. After graphical presentation of the inhibition curves, the Ki values were determined according to the method described in Biochem. J. 55, 1955, 170-171. The inhibition of trypsin was effected analogously, but using the substrate S-2251 (H-D-Val-Leu-Lys-paranitroaniline) in 200 and 750 μM final concentration.

Another series addresses trypsin. Briefly: Inhibition of amidolytic activity of trypsin (chromogenic substrate S-2251). The class given is biochemical. As to conditions: S-2251, 200 and 750 μM final concentration, pH 7.8, room temperature. As to the method:
as §1, §2, §3

A short description of series [1]: Toxicity in mice upon intravenous administration. Conditions: mouse, in vivo. The method, then:
The guanidines of formula I have a low toxicity. Thus, the products of Example 8, 13a, 14i and 18f have an LD50 of 30-50mg/kg in mice upon intravenous administration.

For `N=C(N)N1CCC[C@@H](CNC(=O)[C@@H](Cc2ccc([N+](=O)[O-])cc2)NS(=O)(=O)c2ccc(I)cc2)C1` [Example 17j, (R)-N-[(S)-1-Amidino-3-piperidinylmethyl]-α-(p-iodo-benzenesulfonamido)-p-nitrohydrocinnamamide], the Ki at human thrombin was 26.1 nM; at trypsin, 14800 nM.
`N=C(N)N1CCCC(CNC(=O)[C@@H](Cc2ccccc2)NS(=O)(=O)c2ccc3ccccc3c2)C1` (stereo partly drawn) [Example 9, (R)-N-[(RS)-1-amidino-3-piperidinylmethyl]-α-(2-naphthylsulfonamido)hydrocinnamide]: the inhibition constant (Ki) at human thrombin was determined as 135 nM; at trypsin it was 169000 nM.
On to `N=C(N)N1CCCC(CNC(=O)[C@@H](CN2C(=O)C(=O)c3ccccc32)NS(=O)(=O)c2ccc3ccccc3c2)C1` (some centres unmarked) [Example 8], for which the results for the Ki on human thrombin and at trypsin were 8.55 nM and 20100 nM, respectively. Further, in series [1], the LD50 fell in the range of 30 to 50 mg/kg.
For `N=C(N)N1CCC[C@@H](CNC(=O)[C@@H](Cc2c[nH]c3ccccc23)NS(=O)(=O)c2ccc(I)cc2)C1` [Example 17b, (R)-N-[(S)-1-Amidino-3-piperidinylmethyl]-α-(p-iodobenzenesulfonamido)indole-3-propionamide], the Ki is 20.7 nM at human thrombin and 6300 nM at trypsin.
`N=C(N)N1CCC[C@@H](CNC(=O)[C@@H](Cc2ccc3ccccc3c2)NS(=O)(=O)c2ccc(I)cc2)C1` [Example 17f, (R)-N-[(S)-1-Amidino-3-piperidinylmethyl]-α-(p-iodobenzenesulfonamido)-2-naphthylpropionamide] gave a Ki at human thrombin of 41.3 nM.
`N=C(N)N1CCCC(CNC(=O)[C@@H](Cc2c[nH]c3ccccc23)NS(=O)(=O)c2ccccc2[N+](=O)[O-])C1` (mixture of isomers) [Example 14i, (R)-N-[(RS)-1-Amidino-3-piperidinylmethyl]-α-(o-nitrobenzenesulfonamido)indole-3-propionamide]: the Ki came out at 25 nM at human thrombin and 38000 nM at trypsin. The molecule further had an LD50 in series [1] of 30 to 50 mg/kg.
On human thrombin, `N=C(N)N1CCCC(CNC(=O)[C@@H](CC(=O)c2ccccc2N)NS(=O)(=O)c2ccc3ccccc3c2)C1` (stereo partly drawn) [Example 18f, (R)-N-[(RS)-1-Amidino-3-piperidinylmethyl]-3-(o-aminobenzoyl)-2-(naphthylsulfonamido)propionamide] had a Ki of 16 nM. This molecule also came in with an LD50 in series [1] of 30 to 50 mg/kg.
Take `N=C(N)N1CCCC(CNC(=O)[C@@H](Cc2ccccc2[N+](=O)[O-])NS(=O)(=O)c2ccc3ccccc3c2)C1` (mixture of isomers) [Example 13a, (R)-N-[(RS)-1-Amidino-3-piperidinylmethyl]-α-(2-naphthylsulfonamido)-o-nitrohydrocinnamamide]: the Ki on human thrombin was determined as 20.8 nM; on trypsin, 29200 nM. In series [1], the LD50 lay in the range of 30 to 50 mg/kg.
Regarding `N=C(N)N1CCC[C@@H](COC(=O)[C@@H](Cc2c[nH]c3ccccc23)NS(=O)(=O)c2ccc(I)cc2)C1` [Example 17c, N-(p-Iodophenylsulfonyl)-D-tryptophan (R)-1-amidino-3-piperidinylmethyl ester], the inhibition constant Ki turned out to be 58 nM on human thrombin and 10000 nM at trypsin.
